Experimental data from the supplement of paper PMC11208160.
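Also: IS621 bridge recombinase in Escherichia coli cells against a fixed T5 target plasmid.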

Assay: recombinant UMI read abundance after kanamycin selection (control-corrected) (log10(CPM+1)); higher = more efficient recombination; extreme values may be limits of the assay; sequences stand for … in AGTGCAGAGAAAATCGGCCAGTTTTCTCTGCCTGCAGTCCGCATGCCGTGGGACCCCTTGGGTTCTAACCTGTTGCCTAGATTTATGCAGCGGACTGCCTTTCTCCCAAAGTGATAAACCGG…AGGTTGGTTTCACT; site = the 11-nt donor
Summary of the method: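 Values are reported as log10(CPM+1), obtained by converting sequencing counts to CPM, averaging replicates and scaling by control-derived factors. The counts came from recombinant UMIs amplified by PCR across the donor–target junction. These UMIs came from a pooled Escherichia coli screen of donor and donor-binding-loop pairs for the IS621 bridge recombinase, plated with IPTG (0.07 mM) plus kanamycin or left unselected, in two replicates each.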
For “TTCCAGCCATGGACCGGTTTTCCCGGTAATCCGTATTTGTG (site TTCCAGCCTCA)”, the “recombinant UMI read abundance (log10)” value was 0.0201.
In the case of “TTCCCTACATGGACCGGTTTTCCCGGTAATCCGTATTTGAG (site ATCCCTACTCT)”, the “recombinant UMI read abundance (log10)” value is reported as 0.
For “TTCCCTACATGGACCGGTTTTCCCGGTAATCCGTATTTGAG (site CTCCCTACTCT)”, the “recombinant UMI read abundance (log10)” value was 0.0509.
With “TTCCCTACATGGACCGGTTTTCCCGGTAATCCGTATTTGAG (site GTCCCTACTCT)” the “recombinant UMI read abundance (log10)” value was 0.0155.
In the case of “TTCCCTACATGGACCGGTTTTCCCGGTAATCCGTATTTGAG (site TTCCCTACTCT)”, the “recombinant UMI read abundance (log10)” value is reported as 0.00443.
For “TTCGACCCATGGACCGGTTTTCCCGGTAATCCGTATTTGAG (site TTCGACCCTCT)”, the “recombinant UMI read abundance (log10)” value was 0.00989.
With “TTCGAGACATGGACCGGTTTTCCCGGTAATCCGTATTTGAC (site TTCGAGACTGT)” the “recombinant UMI read abundance (log10)” value was 1.53.
In the case of “TTCGAGGCATGGACCGGTTTTCCCGGTAATCCGTATTTGAT (site TTCGAGGCTAT)”, the “recombinant UMI read abundance (log10)” value is reported as 0.482.
For “TTCGCACCATGGACCGGTTTTCCCGGTAATCCGTATTTGGT (site TTCGCACCTAC)”, the “recombinant UMI read abundance (log10)” value was 0.00499.
With “TTCGCTGCATGGACCGGTTTTCCCGGTAATCCGTATTTGTA (site TTCGCTGCTTA)” the “recombinant UMI read abundance (log10)” value was 0.369.
In the case of “TTCTACGCATGGACCGGTTTTCCCGGTAATCCGTATTTGTT (site TTCTACGCTAA)”, the “recombinant UMI read abundance (log10)” value is reported as 0.603.
For “TTCTAGGCATGGACCGGTTTTCCCGGTAATCCGTATTTGCG (site TTCTAGGCTCG)”, the “recombinant UMI read abundance (log10)” value was 0.0116.
For “TTCTTCACATGGACCGGTTTTCCCGGTAATCCGTATTTGTC (site TTCTTCACTGA)”, the “recombinant UMI read abundance (log10)” value was 0.
In the case of “TTGAACGCATGGACCGGTTTTCCCGGTAATCCGTATTTGAC (site TTGAACGCTGT)”, the “recombinant UMI read abundance (log10)” value is reported as 0.899.
For “TTGACTACATGGACCGGTTTTCCCGGTAATCCGTATTTGCT (site TTGACTACTAG)”, the “recombinant UMI read abundance (log10)” value was 1.09.
For “TTGATTACATGGACCGGTTTTCCCGGTAATCCGTATTTGGC (site TTGATTACTGC)”, the “recombinant UMI read abundance (log10)” value was 0.
For “TTGATTCCATGGACCGGTTTTCCCGGTAATCCGTATTTGAC (site TTGATTCCTGT)”, the “recombinant UMI read abundance (log10)” value was 0.35.
With “TTGCAAGCATGGACCGGTTTTCCCGGTAATCCGTATTTGCT (site TTGCAAGCTAG)” the “recombinant UMI read abundance (log10)” value was 0.
With “TTGCTACCATGGACCGGTTTTCCCGGTAATCCGTATTTGCT (site ATGCTACCTAG)” the “recombinant UMI read abundance (log10)” value was 0.
With “TTGCTACCATGGACCGGTTTTCCCGGTAATCCGTATTTGCT (site CTGCTACCTAG)” the “recombinant UMI read abundance (log10)” value was 0.00337.
In the case of “TTGCTACCATGGACCGGTTTTCCCGGTAATCCGTATTTGCT (site GTGCTACCTAG)”, the “recombinant UMI read abundance (log10)” value is reported as 0.
In the case of “TTGCTACCATGGACCGGTTTTCCCGGTAATCCGTATTTGCT (site TTGCTACCTAG)”, the “recombinant UMI read abundance (log10)” value is reported as 0.
For “TTGGCAACATGGACCGGTTTTCCCGGTAATCCGTATTTGAT (site TTGGCAACTAT)”, the “recombinant UMI read abundance (log10)” value was 0.238.
With “TTGGCGCCATGGACCGGTTTTCCCGGTAATCCGTATTTGAG (site TTGGCGCCTCT)” the “recombinant UMI read abundance (log10)” value was 0.00946.
In the case of “TTGGTAACATGGACCGGTTTTCCCGGTAATCCGTATTTGAC (site TTGGTAACTGT)”, the “recombinant UMI read abundance (log10)” value is reported as 2.33.
For “TTGGTATCATGGACCGGTTTTCCCGGTAATCCGTATTTGTG (site TTGGTATCTCA)”, the “recombinant UMI read abundance (log10)” value was 1.82.
With “TTGGTGGCATGGACCGGTTTTCCCGGTAATCCGTATTTGTC (site TTGGTGGCTGA)” the “recombinant UMI read abundance (log10)” value was 1.5.
With “TTGTACGCATGGACCGGTTTTCCCGGTAATCCGTATTTGCA (site TTGTACGCTTG)” the “recombinant UMI read abundance (log10)” value was 1.8.
For “TTGTAGGCATGGACCGGTTTTCCCGGTAATCCGTATTTGGC (site ATGTAGGCTGC)”, the “recombinant UMI read abundance (log10)” value was 0.
In the case of “TTGTAGGCATGGACCGGTTTTCCCGGTAATCCGTATTTGGC (site CTGTAGGCTGC)”, the “recombinant UMI read abundance (log10)” value is reported as 1.59.
With “TTGTAGGCATGGACCGGTTTTCCCGGTAATCCGTATTTGGC (site GTGTAGGCTGC)” the “recombinant UMI read abundance (log10)” value was 0.
For “TTGTAGGCATGGACCGGTTTTCCCGGTAATCCGTATTTGGC (site TTGTAGGCTGC)”, the “recombinant UMI read abundance (log10)” value was 1.76.
In the case of “TTGTCACCATGGACCGGTTTTCCCGGTAATCCGTATTTGTG (site TTGTCACCTCA)”, the “recombinant UMI read abundance (log10)” value is reported as 0.0196.
For “TTGTCGACATGGACCGGTTTTCCCGGTAATCCGTATTTGAC (site TTGTCGACTGT)”, the “recombinant UMI read abundance (log10)” value was 0.302.
In the case of “TTGTGGCCATGGACCGGTTTTCCCGGTAATCCGTATTTGTG (site TTGTGGCCTCA)”, the “recombinant UMI read abundance (log10)” value is reported as 0.0156.
In the case of “TTGTGTACATGGACCGGTTTTCCCGGTAATCCGTATTTGCA (site TTGTGTACTTG)”, the “recombinant UMI read abundance (log10)” value is reported as 0.756.
With “TTTAATCCATGGACCGGTTTTCCCGGTAATCCGTATTTGAT (site TTTAATCCTAT)” the “recombinant UMI read abundance (log10)” value was 0.157.
In the case of “TTTAGGGCATGGACCGGTTTTCCCGGTAATCCGTATTTGAC (site TTTAGGGCTGT)”, the “recombinant UMI read abundance (log10)” value is reported as 1.53.
In the case of “TTTATTTCATGGACCGGTTTTCCCGGTAATCCGTATTTGAG (site TTTATTTCTCT)”, the “recombinant UMI read abundance (log10)” value is reported as 0.00225.
For “TTTCCGGCATGGACCGGTTTTCCCGGTAATCCGTATTTGTA (site TTTCCGGCTTA)”, the “recombinant UMI read abundance (log10)” value was 0.262.
With “TTTCGATCATGGACCGGTTTTCCCGGTAATCCGTATTTGGT (site TTTCGATCTAC)” the “recombinant UMI read abundance (log10)” value was 0.00229.
With “TTTCTGCCATGGACCGGTTTTCCCGGTAATCCGTATTTGAA (site TTTCTGCCTTT)” the “recombinant UMI read abundance (log10)” value was 0.00894.
In the case of “TTTCTGCCATGGACCGGTTTTCCCGGTAATCCGTATTTGCG (site TTTCTGCCTCG)”, the “recombinant UMI read abundance (log10)” value is reported as 0.0153.
For “TTTGAGGCATGGACCGGTTTTCCCGGTAATCCGTATTTGCT (site TTTGAGGCTAG)”, the “recombinant UMI read abundance (log10)” value was 1.31.
In the case of “TTTGAGGCATGGACCGGTTTTCCCGGTAATCCGTATTTGCT (site TTTGCGGCTAG)”, the “recombinant UMI read abundance (log10)” value is reported as 0.
With “TTTGAGGCATGGACCGGTTTTCCCGGTAATCCGTATTTGCT (site TTTGGGGCTAG)” the “recombinant UMI read abundance (log10)” value was 0.458.
With “TTTGAGGCATGGACCGGTTTTCCCGGTAATCCGTATTTGCT (site TTTGTGGCTAG)” the “recombinant UMI read abundance (log10)” value was 0.0143.
In the case of “TTTGCGACATGGACCGGTTTTCCCGGTAATCCGTATTTGCT (site TTTGCGACTAG)”, the “recombinant UMI read abundance (log10)” value is reported as 0.529.
For “TTTGCGACATGGACCGGTTTTCCCGGTAATCCGTATTTGCT (site TTTGCGCCTAG)”, the “recombinant UMI read abundance (log10)” value was 0.00919.
In the case of “TTTGCGACATGGACCGGTTTTCCCGGTAATCCGTATTTGCT (site TTTGCGGCTAG)”, the “recombinant UMI read abundance (log10)” value is reported as 0.145.
With “TTTGCGACATGGACCGGTTTTCCCGGTAATCCGTATTTGCT (site TTTGCGTCTAG)” the “recombinant UMI read abundance (log10)” value was 0.
With “TTTGCGGCATGGACCGGTTTTCCCGGTAATCCGTATTTGGT (site TTTGCGGCTAA)” the “recombinant UMI read abundance (log10)” value was 0.0207.
In the case of “TTTGCGGCATGGACCGGTTTTCCCGGTAATCCGTATTTGGT (site TTTGCGGCTAC)”, the “recombinant UMI read abundance (log10)” value is reported as 0.0146.
In the case of “TTTGCGGCATGGACCGGTTTTCCCGGTAATCCGTATTTGGT (site TTTGCGGCTAG)”, the “recombinant UMI read abundance (log10)” value is reported as 0.0123.
In the case of “TTTGCGGCATGGACCGGTTTTCCCGGTAATCCGTATTTGGT (site TTTGCGGCTAT)”, the “recombinant UMI read abundance (log10)” value is reported as 0.144.
With “TTTGCGGCATGGACCGGTTTTCCCGGTAATCCGTATTTGTT (site TTTGCGGCTAA)” the “recombinant UMI read abundance (log10)” value was 0.223.
In the case of “TTTGCGGCATGGACCGGTTTTCCCGGTAATCCGTATTTGTT (site TTTGCGGCTAC)”, the “recombinant UMI read abundance (log10)” value is reported as 0.0157.
In the case of “TTTGCGGCATGGACCGGTTTTCCCGGTAATCCGTATTTGTT (site TTTGCGGCTAG)”, the “recombinant UMI read abundance (log10)” value is reported as 0.0139.
For “TTTGCGGCATGGACCGGTTTTCCCGGTAATCCGTATTTGTT (site TTTGCGGCTAT)”, the “recombinant UMI read abundance (log10)” value was 0.00523.
With “TTTGCTTCATGGACCGGTTTTCCCGGTAATCCGTATTTGGT (site TTTGCTTCTAC)” the “recombinant UMI read abundance (log10)” value was 0.00326.
In the case of “TTTGTTCCATGGACCGGTTTTCCCGGTAATCCGTATTTGTG (site TTTGTTCCTCA)”, the “recombinant UMI read abundance (log10)” value is reported as 0.0191.
In the case of “TTTTCCCCATGGACCGGTTTTCCCGGTAATCCGTATTTGTA (site TATTCCCCTTA)”, the “recombinant UMI read abundance (log10)” value is reported as 0.00331.
With “TTTTCCCCATGGACCGGTTTTCCCGGTAATCCGTATTTGTA (site TCTTCCCCTTA)” the “recombinant UMI read abundance (log10)” value was 0.00391.
In the case of “TTTTCCCCATGGACCGGTTTTCCCGGTAATCCGTATTTGTA (site TGTTCCCCTTA)”, the “recombinant UMI read abundance (log10)” value is reported as 0.0253.
With “TTTTCCCCATGGACCGGTTTTCCCGGTAATCCGTATTTGTA (site TTTTCCCCTTA)” the “recombinant UMI read abundance (log10)” value was 0.0384.
In the case of “TTTTCGGCATGGACCGGTTTTCCCGGTAATCCGTATTTGCT (site TTTACGGCTAG)”, the “recombinant UMI read abundance (log10)” value is reported as 0.0102.
With “TTTTCGGCATGGACCGGTTTTCCCGGTAATCCGTATTTGCT (site TTTCCGGCTAG)” the “recombinant UMI read abundance (log10)” value was 0.302.
For “TTTTCGGCATGGACCGGTTTTCCCGGTAATCCGTATTTGCT (site TTTGCGGCTAG)”, the “recombinant UMI read abundance (log10)” value was 0.00223.
With “TTTTCGGCATGGACCGGTTTTCCCGGTAATCCGTATTTGCT (site TTTTCGGCTAG)” the “recombinant UMI read abundance (log10)” value was 0.0145.
